Laboratory results taken from US11220661B2, “Compositions comprising taurate surfactants and methods of using the compositions” (Colgate-Palmolive Company, priority 2016, dated 2022).

Legend:
[1] = tested on: proinflammatory cytokines IL-1a, IL-6, IL-8, TNF-a in 3D EpiDerm skin models; test: Multiple inflammation biomarker assay on SDS-irritated 3D EpiDerm skin models; details: for cytokine levels (IL-1a, IL-6, IL-8, TNF-a; FIGS. 2A-2D, % control): 0.02 wt. % SDS-irritated skin samples, 30 ul of 1% test solution in PBS topically for 1 hour, then 24 hours incubation, Milliplex assay
Protocol: To document the effect on skin inflammation, in vitro experiments using 3D EpiDerm skin models (SIT 200 skin irritation model, MatTek Corporation, Ashland, Mass.) were conducted. An irritant chemical, sodium dodecyl sulfate (0.02 wt. % SDS), was used to induce skin irritation in in vitro skin samples. After the inducement of skin irritation, the in vitro skin samples were each treated topically with one of two 30 ul test solutions (either a 1% Taurine in PBS solution or a 1% Sodium methyl oleoyl taurate in PBS solution) for 1 hour in a tissue culture incubator (37 degree C., 5% CO2). Following the incubation, the skin samples were washed with PBS and placed in a culture medium and further incubated for 24 hours. Tissue was harvested and homogenized for a multiple inflammation biomarker assay, testing levels of IL-1, IL-6, IL-8 and TNF-a. Biomarkers were analyzed by a Milliplex assay kit. (Millipore, Billerica, Mass.).
The irritant chemical, sodium dodecyl sulfate (SDS), that was used is commonly used as a […] control in irritation/inflammation assays on MatTek tissue. The multiple biomarker assay of Example 2 measured the levels of proinflammatory cytokines, including IL-1a, IL-6, IL-8, TNF-a, in one assay to evaluate the level of skin irritation/inflammation. The more cytokines released, the greater the irritation and/or inflammation potential.

[2] = tested on: IL-1a in 3D EpiDerm skin models; test: Irritation biomarker (IL-1a) assay on 3D EpiDerm skin models; type: cell-based, human; details: 6.8% in combar base, p-value of 0.03 vs combar base
Source text: Two separate combar samples were formulated, one with taurine and one with sodium methyl oleoyl taurate. Both the taurine and sodium methyl oleoyl taurate were formulated at the same molar concentration in the combar samples. The weight concentrations of taurine and methyl oleoyl taurate in their respective combar bases was as follows:
Taurine combar sample—2% Taurine (obtained from Qianjiang Yongan Pharmaceutical, Wuhan, China), 98% Combar;
Taurate combar sample—6.8% Sodium Methyl Oleoyl Taurate (obtained from Rhodia Solvay Group), 93.2% Combar.
Samples for testing were made by mixing the taurine combar and taurate combar in PBS (1% weight by volume combar base of each of the taurine combar and sodium methyl oleoyl taurate combar in PBS).
Separate In vitro skin samples were treated topically with 30 ul each of the taurine combar and taurate combar test samples for 1 hour in a tissue culture incubator. […] Tissue was harvested and homogenized for a IL-1a assay. IL-1a levels were analyzed using a Human IL-1 alpha/IL-1F1 Quantikine ELISA kit available from R&D Systems, Minneapolis, Minn. Among cytokines released along the inflammation pathway, IL-1a is recognized as a prominent irritation biomarker. The more IL-1a that is released, the greater is the irritation potential.
Thus, the combar base was used as a negative control on the MatTek tissue.

[3] = tested on: HaCaT cells; test: Cell migration assay (scratch gap closure); type: cell-based, human; details: 0.01% by weight in DMEM culture medium, 24 hours, vs control medium
Protocol: Three different culture medium samples were prepared. A control medium that included a Dulbecco's modified Eagle's medium (DMEM) comprising actives of 10% Fetal Bovine Serum and 1% Penicillin Streptomycin; a taurine medium that was the same as the control medium but included 0.01% by weight Taurine; and a taurate medium that was the same as the control medium but included 0.01% by weight Sodium Methyl Oleoyl Taurate. To determine the effect of both Taurine (0.01%) and Sodium Methyl Oleoyl Taurate (0.01%) on the cellular repair function, in vitro experiments were conducted using HaCaT cells. HaCaT cells are a spontaneously transformed aneuploid immortal keratinocyte cell line from adult human skin. Three sample wells of the HaCaT cells were each grown until 100% confluent. After that, each well was scratched with a 1000 microliter (ul) tip (to create the gap) and washed twice with 1 milliliter (ml) of phosphate buffered saline (“PBS”) to eliminate dead floating cells. Following that, each one of the three sample wells were treated with 1 ml of one of the three culture medium samples: one with the control medium, one with the taurine (0.01%) medium, and one with the sodium methyl oleoyl taurate (0.01%) medium. Then, initial measurements of gap distance were taken using a microscope (OLYMPUS IX71). […]

SMILES | expression of cytokines IL-1a, IL-6, IL-8 and TNF-a by the irritant ([1]; 0.02 wt. % SDS on 3D EpiDerm) | cytokine levels (IL-1a, IL-6, IL-8, TNF-a; FIGS. 2A-2D, % control) [1] | irritation potential of the combar base [2] | cell migration rate (% reduction in gap distance, FIG. 1) [3]
CCCCCCCCCCCCOS(=O)(=O)[O-].[Na+] [SDS, Sodium Dodecyl Sulfate] | induced |  |  | 
CCCCCCCC/C=C\CCCCCCCC(=O)N(C)CCS(=O)(=O)[O-].[Na+] [sodium methyl oleoyl taurate] |  | suppressed | significantly reduced | comparable enhancement in cell migration rate
NCCS(=O)(=O)O [taurine, 2-aminoethylsulphonic acid] |  | suppressed |  | comparable enhancement in cell migration rate
